Values of other authors in publication PMC4876928 (Clinical cancer research : an official journal of the …, 2016).

System: malignant pleural mesothelioma
Settings: MPM previously treated with chemotherapy, second-line; cited from earlier work

Compound	response rate [%]
Nc1ccn([C@@H]2O[C@H](CO)[C@@H](O)C2(F)F)c(=O)n1 [gemcitabine]	2
CCC1=C[C@@H]2CN(C1)Cc1c([nH]c3ccccc13)[C@@](C(=O)OC)(c1cc3c(cc1OC)N(C)[C@H]1[C@@](O)(C(=O)OC)[C@H](OC(C)=O)[C@]4(CC)C=CCN5CC[C@]31[C@@H]54)C2 [vinorelbine]	2
